BindingDB's records for patent US20240336593 (Lnnovstonetherapeutics, 2024)

Molecular target: Protein arginine N-methyltransferase 5 (Homo sapiens, UniProt O14744)
Assay: Test on the inhibitory activity of the compounds of the invention against PRMT5 enzyme by radioisotopic method
Description: Test method: A 1× enzyme reaction buffer (10 mM Tris 8.0 (Sigma, Cat. No. T2694-1L), 0.01% Tween-20 (Sigma, Cat. No. P2287-100 ML), 1 mM DTT (Sigma, Cat. No. D0632-10G)) was prepared. […] SAM (PerkinElmer, Cat. No. NET155V001MC) were added to the 1×enzyme reaction buffer, to prepare a 25/15× mixed solution (PRMT5 final concentration: 5 nM, [3H] SAM final concentration: 0.3 μM). […] 25 µL of the reaction mixture was transferred into a FlashPlate (Streptavidin FlashPlate HTS PLUS, High Capacity, 384-well, Perkin Elmer, Cat. No. SMP410A001PK), and incubated at room temperature for 1 h. After washed three times with distilled water containing 0.1% Tween-20, the microplate was read on a MicroBeta reader for CPM data (Counts Per Minute). […] Then the inhibition rate Inh % (Y) corresponding to each concentration (X) was input in EXCEL, and the IC50 value (the half maximal inhibitory concentration) of each compound was calculated with the XLfit plug-in according to the built-in four-parameter fitting equation Y=Bottom+(Top-Bottom)/(1+(IC50/X)[…]).

Sequence of Protein arginine N-methyltransferase 5 (O14744 whole entry): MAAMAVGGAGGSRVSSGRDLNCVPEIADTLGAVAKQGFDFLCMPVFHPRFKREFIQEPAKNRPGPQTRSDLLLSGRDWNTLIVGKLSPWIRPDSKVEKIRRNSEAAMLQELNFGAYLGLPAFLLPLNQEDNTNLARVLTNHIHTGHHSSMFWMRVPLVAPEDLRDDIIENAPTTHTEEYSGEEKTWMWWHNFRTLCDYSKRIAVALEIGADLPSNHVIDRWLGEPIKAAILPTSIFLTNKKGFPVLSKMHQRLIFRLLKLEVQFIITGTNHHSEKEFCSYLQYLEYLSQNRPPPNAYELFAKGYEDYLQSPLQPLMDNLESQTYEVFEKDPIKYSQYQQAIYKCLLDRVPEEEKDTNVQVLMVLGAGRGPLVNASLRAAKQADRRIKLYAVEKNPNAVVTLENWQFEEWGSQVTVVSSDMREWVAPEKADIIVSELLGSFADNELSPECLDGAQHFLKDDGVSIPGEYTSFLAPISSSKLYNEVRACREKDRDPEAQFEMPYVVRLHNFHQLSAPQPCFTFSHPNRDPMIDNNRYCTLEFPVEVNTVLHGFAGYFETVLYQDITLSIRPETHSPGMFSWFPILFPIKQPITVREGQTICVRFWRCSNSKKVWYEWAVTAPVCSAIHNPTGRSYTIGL

Row | SMILES | IC50
1 | Cc1cccc(Nc2cc(N3CC[C@H](N4CCc5ccccc5C4)[C@@H](O)C3)ncn2)c1 (relative stereo) [US20240336593, Example 34] | < 100 nM
2 | COc1ccccc1Nc1cc(C(=O)N2CC[C@H](N3CCc4ccccc4C3)[C@@H](O)C2)ncn1 (relative stereo) [US20240336593, Example 105] | < 100 nM
3 | O=C(c1cc(NC2CCN(CC(F)(F)F)CC2)ncn1)N1CC[C@H](N2CCc3ccccc3C2)[C@@H](O)C1 (relative stereo) [US20240336593, Example 121] | < 100 nM
4 | CN1CCC(Nc2cc(C(=O)N3CC[C@H](O)[C@@H](N4CCc5ccccc5C4)CC3)ncn2)CC1 (relative stereo) [US20240336593, Example 129] | < 100 nM
5 | CS(=O)(=O)c1ccc(Nc2cc(C(=O)N3CC[C@H](N4CCc5ccccc5C4)[C@@H](O)C3)ncn2)cc1 (relative stereo) [US20240336593, Example 132] | < 100 nM
6 | CS(=O)(=O)c1cccc(Nc2cc(C(=O)N3CC[C@H](N4CCc5ccccc5C4)[C@@H](O)C3)ncn2)c1 (relative stereo) [US20240336593, Example 133] | < 100 nM
7 | O=C(c1cc(NC2CCS(=O)(=O)CC2)ncn1)N1CC[C@H](N2CCc3ccccc3C2)[C@@H](O)C1 (relative stereo) [US20240336593, Example 135] | < 100 nM
8 | O=C(c1cc(NC2CCNCC2)ncn1)N1CC[C@H](N2CCc3ccccc3C2)[C@@H](O)C1 [US20240336593, Example 112] | < 100 nM
9 | CC(=O)N1CCC(Nc2cc(C(=O)N3CC[C@@H](N4CCc5ccccc5C4)[C@H](O)C3)nc(-c3cn[nH]c3)n2)CC1 [US20240336593, Example 145] | < 100 nM
10 | O=C(c1cc(NCC(F)F)nc(-n2ccnc2)n1)N1CCC(N2CCc3ccccc3C2)[C@H](O)C1 (some centres not stated) [US20240336593, Example 147] | < 100 nM
11 | COCCCCNc1cc(C(=O)N2CC[C@@H](N3CCc4ccccc4C3)[C@H](O)C2)nc(-c2ccccc2)n1 [US20240336593, Example 148] | < 100 nM

The remaining lines, values ahead:

Row | IC50 | SMILES
12 | < 100 nM | CN1CCC(Nc2cc(C(=O)N3CC[C@H](N4CCc5ccccc5C4)[C@@H](O)C3)ncn2)CC1 (relative stereo) [US20240336593, Example 100]
13 | < 100 nM | O=C(c1cc(NC2CCOCC2)ncn1)N1CC[C@H](O)[C@@H](N2CCc3ccccc3C2)CC1 (relative stereo) [US20240336593, Example 128]
14 | < 100 nM | CS(=O)(=O)N1CCC(Nc2cc(C(=O)N3CC[C@H](O)[C@@H](N4CCc5ccccc5C4)CC3)ncn2)CC1 (relative stereo) [US20240336593, Example 130]
15 | < 100 nM | O=C(c1cc(NC2CCN(CCO)CC2)ncn1)N1CC[C@H](N2CCc3ccccc3C2)[C@@H](O)C1 [US20240336593, Example 122]
16 | < 100 nM | N#CCC(=O)N1CCC(Nc2cc(C(=O)N3CC[C@H](N4CCc5ccccc5C4)[C@@H](O)C3)ncn2)CC1 [US20240336593, Example 143]
17 | < 100 nM | CO[C@H]1C[C@@H](Nc2cc(C(=O)N3CC[C@@H](N4CCc5ccccc5C4)[C@H](O)C3)nc(-c3ccccc3)n2)C1 [US20240336593, Example 146]
